Our source for the EC50 values is US10034886B2, “GLP-1 receptor modulators” (Celgene International II SÀRL, priority 2014, dated 2018).

This assay concerns the target T1, GLP-1R (Homo sapiens, UniProt P43220).
T1 construct: host or cells: GLP-1R CRE-bla CHO-K1 cells
Description: EC20 GLP-1(9-36) PAM cAMP assay: dose response of compound in the presence of fixed concentration of GLP-1(9-36). Type of assay: cell-based. As to conditions: GLP-1R CRE-bla CHO-K1 cells, read-out: EC20 GLP-1(9-36) PAM EC50. In a few lines:
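Positive allosteric modulation read as cAMP accumulation: compound titrations (12 points) combined with an EC20 level of GLP-1(9-36) on CHO-K1 GLP-1R CRE-bla cells, IBMX present, 30 min, 37 °C, pH 7.4 buffer. Luminescence converted to cAMP via standards; non-linear fit gave EC50 and Emax.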
Background: Cyclic AMP is a second messenger, typically raised through Gs and lowered through Gi signalling.

Setting [1] is: dose response of compound in presence of fixed concentration of GLP-1(9-36).
Where [2] appears, read: compound dose response with fixed concentration of GLP-1(9-36).

Structures are written as SMILES. Read-outs that look alike come from different tables or passages of the source.

T1 sequence (P43220 24-463): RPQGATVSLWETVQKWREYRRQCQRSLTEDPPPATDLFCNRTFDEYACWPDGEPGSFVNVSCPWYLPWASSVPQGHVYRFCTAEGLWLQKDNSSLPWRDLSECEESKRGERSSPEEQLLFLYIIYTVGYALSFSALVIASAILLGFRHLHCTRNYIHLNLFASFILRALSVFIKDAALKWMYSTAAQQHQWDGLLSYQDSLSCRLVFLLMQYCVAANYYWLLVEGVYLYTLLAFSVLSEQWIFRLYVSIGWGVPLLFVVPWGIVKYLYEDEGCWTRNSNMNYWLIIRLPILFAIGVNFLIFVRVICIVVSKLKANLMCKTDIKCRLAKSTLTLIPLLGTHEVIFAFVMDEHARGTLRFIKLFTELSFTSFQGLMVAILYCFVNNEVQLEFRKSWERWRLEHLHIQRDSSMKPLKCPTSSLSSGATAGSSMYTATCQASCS
T1 sequence (P01275 100-127 partner limits assumed): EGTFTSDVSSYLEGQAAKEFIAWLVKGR

For orientation: EC50 means the concentration that produces a half-maximal response. Regarding `CCCCCCCOc1ccc(-c2cnc(-c3ccc(C[C@H](NC(=O)c4cnn(C(C)(C)C)c4C)C(=O)N4CC[C@H](C(=O)O)C4)cc3)nc2)cc1` [Compound 861], the EC50 under setting [1] fell in the range of 2500 to 5000 nM.

Turning to `CCOC1CC(c2ccc(-c3cnc(-c4ccc(C[C@H](NC(=O)c5ccc(C(C)(C)C)s5)C(=O)N[C@H](C)C(=O)O)cc4)nc3)cc2)C1` (stereo partly drawn) [Compound 1130], under setting [1], the half-maximal effective concentration (EC50) lay within 800 to 2500 nM. `CC(C)CCCOc1ccc(-c2cnc(-c3ccc(C[C@H](NC(=O)c4ccc(OC(C)C)cc4)C(=O)N4CC(C(=O)O)C4)cc3)nc2)cc1` [Compound 1238]: the EC50 under setting [2] was in the range of 800 to 2500 nM. Same read-out and setting: in the case of `CC(C)(C)c1ccc(C(=O)N[C@@H](Cc2ccc(-c3ncc(N4CCC(c5ccc(CC#N)cc5)CC4)cn3)cc2)C(=O)N2CC(C(=O)O)C2)s1` [Compound 1500] it was 5000 to 10000 nM. Turning to `CCCCCCCOc1ccc(-c2cnc(-c3ccc(C[C@H](NC(=O)c4ccc(C(C)(C)C)cc4)C(=O)N[C@@H](CC(=O)N(C)C)C(=O)O)cc3)nc2)cc1` [Compound 478], the EC50 under setting [1] was under 800 nM. Still for that read-out and setting: in the case of `CCCOc1ccc(-c2cnc(-c3ccc(C[C@H](NC(=O)c4ccc(C(C)(C)C)s4)C(=O)N4CC[C@H](C(=O)O)C4)cc3)nc2)cc1` [Compound 761] it was 2500 to 5000 nM; in that of `C[C@@H](NC(=O)[C@H](Cc1ccc(-c2ncc(/C=C\c3ccccc3)cn2)cc1)NC(=O)c1ccc(C(C)(C)C)s1)C(=O)O` [Compound 1050], 800 to 2500 nM; in that of `CCCCCCCOc1ccc(-c2cnc(-c3ccc(C[C@H](NC(=O)c4ccc(C5CC5)s4)C(=O)N[C@H](C)C(=O)O)cc3)nc2)cc1` [Compound 842], 800 to 2500 nM. On to `C[C@@H](NC(=O)[C@H](Cc1ccc(-c2ncc(-c3ccc(-c4ccccc4)cc3F)cn2)cc1)NC(=O)c1ccc(C(C)(C)C)s1)C(=O)O` [Compound 1318], for which the EC50 under setting [2] is under 800 nM. Turning to `CC(C)c1cccc(-c2cnc(-c3ccc(C[C@H](NC(=O)c4ccc(C(C)(C)C)s4)C(=O)N[C@H](C)C(=O)O)cc3)nc2)c1` [Compound 1033], under setting [1], the EC50 lay in the range of 5000 to 10000 nM. For the compound `CCCc1ccc(C2CCN(c3cnc(-c4ccc(C[C@H](NC(=O)c5ccc(C(C)(C)C)s5)C(=O)N5CC(C(=O)O)C5)cc4)nc3)C2)cc1` (stereo partly drawn) [Compound 1504], the EC50 under setting [2] is 800 to 2500 nM. On the same count and under the same terms, the result for `CC(C)(C)c1ccc(C(=O)N[C@@H](Cc2ccc(-c3ncc(N4CCC(c5cccc(C(F)(F)F)c5)CC4)cn3)cc2)C(=O)N2CC(C(=O)O)C2)s1` [Compound 1482] reads 800 to 2500 nM.

For the compound `CCCCCCCOc1ccc(-c2cnc(-c3ccc(C[C@H](NC(=O)c4ccc(C(C)(C)C)s4)C(=O)N[C@H](C(=O)O)[C@@H](C)O)cc3)nc2)cc1` [Compound 645], the EC50 under setting [1] is under 800 nM. For `CC(C)COc1ccc(-c2cnc(-c3ccc(C[C@H](NC(=O)c4ccc(C(C)(C)C)s4)C(=O)N4CC(C(=O)O)C4)cc3)nc2)cc1` [Compound 789], the EC50 under setting [1] lay within 2500 to 5000 nM.

Consider `CCCCCCCOc1ccc(-c2cnc(-c3ccc(C[C@H](NC(=O)c4ccc(C(C)C)cc4)C(=O)NC(C(=O)O)C(O)c4ccccc4)cc3)nc2)cc1` (stereo partly drawn) [Compound 951], for which, under setting [1], the EC50 was 800 to 2500 nM. Same read-out and setting: in the case of `CCCCCCCOc1ccc(-c2cnc(-c3ccc(C[C@H](NC(=O)c4ccc(C(C)(C)C)cc4)C(=O)N[C@@H](Cc4ccc(O)cc4)C(=O)O)cc3)nc2)cc1` [Compound 451] it was under 800 nM. Take `CCCc1ccc(-c2ccc(-c3cnc(-c4ccc(C[C@H](NC(=O)c5ccc(C(C)(C)C)s5)C(=O)O)cc4)nc3)cc2)cc1` [Compound 1393]: under setting [2], the EC50 is 800 to 2500 nM. Turning to `CCCCCCCOc1ccc(-c2cnc(-c3ccc(C[C@H](NC(=O)c4ccc(C(C)(C)C)s4)C(=O)NC(C(=O)O)C(O)C(C)(C)C)cc3)nc2)cc1` (stereo partly drawn) [Compound 918], the EC50 under setting [1] lay within 5000 to 10000 nM. Same read-out and setting: in the case of `CCCCCCCOc1ccc(-c2cnc(-c3ccc(C[C@H](NC(=O)c4ccc(C(C)(C)C)s4)C(=O)NCCNC(C)=O)cc3)nc2)cc1` [Compound 389] it was 800 to 2500 nM. As for `CCCCCCCOc1ccc(-c2cnc(-c3ccc(C[C@H](NC(=O)c4ccc(C(C)(C)C)s4)C(=O)NC(C(=O)O)C(O)c4ccc(OC)cc4)cc3)nc2)cc1` (stereo partly drawn) [Compound 644], the EC50 under setting [1] was under 800 nM.

In the case of `CCCCCCCOc1ccc(-c2cnc(-c3ccc(C[C@H](NC(=O)c4ccc(CCC)s4)C(=O)N[C@H](C)C(=O)O)cc3)nc2)cc1` [Compound 840], under setting [1], the EC50 was in the range of 800 to 2500 nM.

Consider `CCCOc1ccc(-c2cnc(-c3ccc(C[C@H](NC(=O)c4ccc(C(C)(C)C)s4)C(=O)N[C@H](C)C(=O)O)cc3)nc2)cc1C` [Compound 1005], for which the EC50 under setting [1] lay within 800 to 2500 nM. On the same count and under the same terms, the result for `CCCCCCCOc1ccc(-c2cnc(-c3ccc(C[C@H](NC(=O)c4ccc(C(C)(C)C)s4)C(=O)N4CC(CC(=O)O)C4)cc3)nc2)cc1` [Compound 607] reads 800 to 2500 nM. In the case of `CC[C@H]1CC[C@H](c2ccc(-c3cnc(-c4ccc(C[C@H](NC(=O)c5cnc(C(C)(C)C)nc5)C(=O)O)cc4)nc3)cc2)CC1` [Compound 1368], the EC50 under setting [2] is under 800 nM. Turning to `CCCCCc1noc(-c2cnc(-c3ccc(C[C@H](NC(=O)c4ccc(C(C)(C)C)cc4)C(=O)NCCC(=O)O)cc3)nc2)n1` [Compound 753], under setting [1], the EC50 lay within 2500 to 5000 nM. For the compound `CCCCCCCOc1ccc(-c2cnc(-c3ccc(C[C@H](NC(=O)c4ccc(C(C)(C)C)cc4)C(=O)N4CC(C(=O)O)CC4C)cc3)nc2)cc1` (stereo partly drawn) [Compound 893], under setting [1], the EC50 fell in the range of 2500 to 5000 nM. Consider `CCCOc1ccc(-c2ccc(-c3cnc(-c4ccc(C[C@H](NC(=O)c5ccc(C(C)(C)C)s5)C(=O)O)cc4)nc3)c(F)c2)cc1` [Compound 1360], for which the EC50 under setting [2] lay in the range of 2500 to 5000 nM. Take `CCCCCCCOc1ccc(-c2cnc(-c3ccc(C[C@H](NC(=O)c4ccc(C(C)(C)C)s4)C(=O)NCC4(C(=O)OC)CCNCC4)cc3)nc2)cc1` [Compound 605]: the EC50 under setting [1] was under 800 nM. The same measure, in the same setting: in the case of `CC(C)N(C(=O)c1ccc(-c2cnc(-c3ccc(C[C@H](NC(=O)c4ccc(C(C)(C)C)s4)C(=O)N[C@H](C)C(=O)O)cc3)nc2)cc1)C(C)C` [Compound 1028] it was 2500 to 5000 nM. The same measure, in the same setting: in the case of `CCCCCCCOc1ccc(-c2cnc(-c3ccc(C[C@H](NC(=O)c4ccc(C(C)(C)C)s4)C(=O)NC(C(=O)O)[C@@H](O)c4ccccc4)cc3)nc2)cc1` (stereo partly drawn) [Compound 651] it was under 800 nM; in that of `CC(C)[C@H]1CC[C@@H](c2ccc(-c3cnc(-c4ccc(C[C@H](NC(=O)c5ccc(C(C)(C)C)s5)C(=O)N5CC(C(=O)O)C5)cc4)nc3)cc2)CC1` [Compound 1179], under 800 nM.

Take `CCCCCCCOc1ccc(-c2cnc(-c3ccc(C[C@H](NC(=O)c4ccc(C(=O)c5ccccc5)cc4)C(=O)N[C@H](C)C(=O)O)cc3)nc2)cc1` [Compound 981]: the EC50 under setting [1] is 2500 to 5000 nM. `CCC[C@H]1CC[C@H](c2ccc(-c3cnc(-c4ccc(C[C@H](NC(=O)c5ccc(C(C)(C)C)s5)C(=O)O)cc4)nc3)cc2)CC1` [Compound 1346]: the EC50 under setting [2] was under 800 nM.

Regarding `CC(C)Oc1cc(-c2cnc(-c3ccc(C[C@H](NC(=O)c4ccc(C(C)(C)C)s4)C(=O)N[C@H](C)C(=O)O)cc3)nc2)cc(Cl)c1OC(C)C` [Compound 1017], the EC50 under setting [1] lay in the range of 2500 to 5000 nM. For `COc1ccc(C(=O)N[C@@H](Cc2ccc(-c3ncc(-c4ccc(OCCCC(C)C)cc4)cn3)cc2)C(=O)N2CC(C(=O)O)C2)cc1` [Compound 1229], the EC50 under setting [2] lay within 2500 to 5000 nM. On to `CCCCCCCOc1ccc(-c2cnc(-c3ccc(C[C@H](NC(=O)c4ccc(C(C)(C)C)cc4)C(=O)N[C@@H](CCCN)C(=O)O)cc3)nc2)cc1` [Compound 469], for which the EC50 under setting [1] was 800 to 2500 nM.
